Data: patent publication US10829440B2, “Antibacterial compounds and methods of making and using same” (Brown University, priority 2015, dated 2020)
In brackets after ≈: the same amount, converted by molar mass.

Key:
[1] = tested on: peptidoglycan synthesis/metabolism in B. subtilis; experiment: UDP-MurNAc-pentapeptide accumulation (nucleotide sugar extraction, C18-RP-HPLC); format: cell-based, Bacillus subtilis; conditions: 4×MIC for 1 h after chloramphenicol pretreatment
Description: Ugi-derived terminal alkynes target peptidoglycan synthesis/metabolism. B. subtilis was grown to mid-exponential phase (O.D.600˜0.6) and all cultures treated with Chloramphenicol (Cm) ([…]) for 15 min. Cultures were then exposed to vancomycin (Van) ([…]) or fgkc (4×MIC) for 1 h. Nucleotide sugars were extracted with hot water and separated by C18-RP-HPLC. (*) denotes retention time of UDP-MurNAc-pentapeptide.

B. subtilis [2] = experiment: Single concentration (250 μM) whole-cell resazurin fluorescence assay; conditions: for degree of inhibition (smallest values of fluorescence): 250 μM inhibitor, fluorescence at 60 min
Description: (§1) Bacillus subtilis ATCC 11775 was plated on agar from a 20% glycerol stock solution stored at −80° C. Inoculated plates were then incubated at 37° C. under aerobic conditions for 16 hours. Single cultures were transferred to Nutrient Broth (NB) and cultured for 16 hours under the same conditions.
(§2) Second passage cultures were standardized to O.D.600 nm=1.0.
The resazurin microtiter assay procedure described by Palomino and coworkers was used for assessing antimicrobial activity (Palomino. et al., 2002, Antimicrob. Agents Chemother. 46:2720-2722). The assay was performed in LB broth. Resazurin sodium salt powder was prepared in distilled water and filter sterilized at 0.001% (w/v) for MIC assays and at 0.01% (w/v) for single concentration assays. […] Growth controls containing no inhibitory compound, sterility controls without inoculation, and controls containing a known antibiotic, chloramphenicol, were also included. […] Later studies were carried out at a single inhibitor concentration of 250 μM. The plates were incubated for 4 h under aerobic conditions with the same controls. After incubation 30 μL of resazurin solution was added to each well and incubated for 60 min. Inhibition was quantified by fluorescence readings from plate reader SAFIRE, Firmware: V 2.20 08/02 Safire. Excitation wavelength set to 560 nm, emission wavelength set to 590 nm. Well containing dye and non-inoculated cells was used as gain set. Plates were held at 37° C. and fluorescence measurements were taken at 0, 5, 10, 20, 30, and 60 min after addition of dye. Lower fluorescence values correlate to greater degrees of inhibition.
Compounds were tested in vivo for their capacity to inhibit B. subtilis growth. In order to determine growth inhibition, a resazurin whole-cell assay was used (Kuhn, et al., 2014, Medchemcomm 5:1213-1217). […] The resazurin is naturally a blue color, but with reductive species produced during bacterial growth, it is reduced to resorufin, which appears pink. Resorufin is also fluorescent and can be measured by a plate-reader.
In an initial set-up, each compound was evaluated at the single concentration of 250 μM in triplicate. Growth controls containing no inhibitory compound, sterility controls without inoculation, and controls containing a known antibiotic, chloramphenicol, were also included. After incubation of the bacteria with the inhibitors for four hours, resazurin dye was added and the plate was immediately placed in a plate reader. Fluorescence of each well was measured at 590 nm at 0, 5, 10, 20, and 60 min after addition of the dye. A higher growth rate of bacteria produces more resorufin and thus more fluorescence. Lower fluorescence therefore indicates better growth inhibition.
Fluorescence was further evaluated as it developed over time.

S. pneumoniae = experiment: MIC against Gram-positive organisms: S. pneumoniae; format: cell-based, Streptococcus pneumoniae; conditions: for MIC: Streptococcus pneumoniae, read-out: Minimum inhibitory concentration (MIC) S. pneumoniae
B. subtilis [3] = experiment: MIC against Gram-positive organisms: B. subtilis; format: cell-based; conditions: Bacillus subtilis; read-out: Minimum inhibitory concentration (MIC) B. subtilis
E. coli = conditions: cited from earlier work
FlgJ (GH73) = FlgJ (GH73) (Salmonella typhimurium, UniProt P15931); experiment: Inhibition of FlgJ (GH73); format: biochemical, Salmonella enterica
Description: Activity was measured as described in Herlihey, et al. 2014, J. Biol Chem 289(45):31029.

S. aureus = experiment: MIC against Gram-positive organisms: S. aureus; format: cell-based, Staphylococcus aureus; conditions: for MIC: Staphylococcus aureus, read-out: Minimum inhibitory concentration (MIC) S. aureus
B. subtilis [4] = experiment: Resazurin microtiter MIC / serial dilution whole-cell assay; conditions: for Minimum inhibitory concentration (MIC), lowest concentration preventing color change blue to pink: serial dilution 250 μM down to 7.9 μM, triplicate, plates incubated only 30 minutes due to experimental error
Description: as §1, §2
The resazurin microtiter assay procedure described by Palomino and coworkers was used for assessing antimicrobial activity (Palomino. et al., 2002, Antimicrob. Agents Chemother. 46:2720-2722). The assay was performed in LB broth. Resazurin sodium salt powder was prepared in distilled water and filter sterilized at 0.001% (w/v) for MIC assays and at 0.01% (w/v) for single concentration assays. Compounds were first screened in MIC assays to assess whether growth inhibition was dependent on inhibitor concentration. The plates were incubated for 30 min under aerobic conditions. Growth controls containing no inhibitory compound, sterility controls without inoculation, and controls containing a known antibiotic, chloramphenicol, were also included. The innoculum was prepared from second passage cultures in Nutrient Broth (NB) and standardized to O.D.600 nm=1.0 and the wells inoculated with a 1:20 dilution. Serial two-fold dilutions of each compound in 100 μL of medium were prepared directly in 96 well plates at concentrations ranging from 250 μM to 7 μM. After incubation 30 μL of resazurin solution was added to each well and incubated for 30 min. A change in color from blue to pink indicated reduction of resazurin, and therefore bacterial growth. Minimum inhibitory concentration (MIC) was determined as the lowest drug concentration that prevented the color change from blue to pink. Inhibition was quantified by observation of color change. Later studies were carried out at a single inhibitor concentration of 250 μM. The plates were incubated for 4 h under aerobic conditions with the same controls. After incubation 30 μL of resazurin solution was added to each well and incubated for 60 min. Inhibition was quantified by fluorescence readings from plate reader SAFIRE, Firmware: V 2.20 08/02 Safire. […] Plates were held at 37° C. and fluorescence measurements were taken at 0, 5, 10, 20, 30, and 60 min after addition of dye. Lower fluorescence values correlate to greater degrees of inhibition.
Compounds were tested in vivo for their capacity to inhibit B. subtilis growth. […] Resorufin is also fluorescent and can be measured by a plate-reader.
Each dilution was run in triplicate. […] Minimum inhibitory concentration (MIC) was determined as the lowest drug concentration that prevented the color change from blue to pink. The fluorescence was again quantified by a plate reader, and two identical plates were run simultaneously.

LytG (GH73) = LytG (GH73) (Bacillus subtilis, UniProt O32083); experiment: In vitro GlcNAcase inhibition, turbidometric assay with purified peptidoglycan; format: biochemical, B. subtilis
From the text: FIG. 9 is a graph illustrating inhibition of LytG (GH73) from B. subtilis by fgka. The assay involved in vitro GlcNAcase inhibition of B. subtilis LytG by fgka, as measured using turbidometric assays with purified peptidoglycan (Horsburgh, et al., 2003, Biochemistry 42:257).

P. difficile = experiment: MIC against Gram-positive organisms: P. difficile; format: cell-based, Clostridium difficile (Peptoclostridium difficile); conditions: Clostridioides difficile; read-out: Minimum inhibitory concentration (MIC) P. difficile

Chain of FlgJ (GH73) (P15931 whole entry): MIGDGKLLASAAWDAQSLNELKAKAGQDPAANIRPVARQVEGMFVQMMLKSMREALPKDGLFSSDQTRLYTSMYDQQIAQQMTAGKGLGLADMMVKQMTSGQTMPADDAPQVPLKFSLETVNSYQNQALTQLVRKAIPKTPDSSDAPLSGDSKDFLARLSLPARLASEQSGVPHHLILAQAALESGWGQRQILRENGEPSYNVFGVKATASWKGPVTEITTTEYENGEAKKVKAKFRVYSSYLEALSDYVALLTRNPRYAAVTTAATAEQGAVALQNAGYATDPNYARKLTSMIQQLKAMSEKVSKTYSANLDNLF
Chain of LytG (GH73) (O32083 30-282): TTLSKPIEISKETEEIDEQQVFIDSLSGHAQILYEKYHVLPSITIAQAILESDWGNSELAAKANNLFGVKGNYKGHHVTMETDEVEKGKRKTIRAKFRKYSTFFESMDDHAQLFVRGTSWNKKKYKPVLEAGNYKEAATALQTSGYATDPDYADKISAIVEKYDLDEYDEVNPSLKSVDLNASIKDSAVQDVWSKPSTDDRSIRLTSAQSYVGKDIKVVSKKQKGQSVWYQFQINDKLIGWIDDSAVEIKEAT

Compound: O=C(NC1CCCCC1)C(C1CCCCC1)N(C(=O)c1ccccc1I)C1CCCCC1 (stereo not shown) [fgkc]
- UDP-MurNAc-pentapeptide accumulation [1]: results in UDP-MurNAc-pentapeptide accumulation
- antibacterial activity against B. subtilis Lyt G (B. subtilis [2]): antibacterial activity
- degree of inhibition (smallest values of fluorescence) (B. subtilis [2]): highest degree of inhibition
- antibacterial activity against S. pneumoniae (S. pneumoniae): antibacterial activity
- MIC (B. subtilis [3]): 1.65 µg/mL (≈ 3 µM)

Compound: CC1=N[C@@H]2[C@@H](O)[C@H](O)[C@@H](CO)O[C@@H]2S1 [NAG-thiazoline]
- effect on the viability of E. coli (E. coli): no effect

Compound: C#CCN(C(=O)c1ccccc1I)C(C(=O)NCCCC)C1CCCCC1 (stereo not shown) [fgba]
- inhibition of FlgJ (GH73) (FlgJ (GH73)): weak inhibition
- antibacterial activity against S. aureus (S. aureus): antibacterial activity
- MIC (S. aureus): 2.81 µg/mL (≈ 5.85 µM)

Compound: CCCCNC(=O)C(C1CCCCC1)N(C(=O)c1ccccc1I)C(C)C (stereo not shown) [fgoa]
- Minimum inhibitory concentration (MIC), lowest concentration preventing color change blue to pink (B. subtilis [4]): 62.5 µM (≈ 30.3 µg/mL)

Compound: CCCCNC(=O)C(C1CCCCC1)N(C(=O)c1ccccc1I)C1CCCCC1 (stereo not shown) [fgka]
- MIC (B. subtilis [3]): 11.5 µg/mL (≈ 22 µM)

Compound: O=C(NCc1ccccc1)C(C1CCCCC1)N(C(=O)c1ccccc1I)C1CCCCC1 (stereo not shown) [fgkb]
- antibacterial activity against B. subtilis Lyt G (B. subtilis [2]): antibacterial activity
- degree of inhibition (smallest values of fluorescence) (B. subtilis [2]): highest degree of inhibition

Compound: CCCCNC(=O)C(C1CCCCC1)N(C(=O)c1ccccc1I)c1ccccc1 (stereo not shown) [fgqa]
- MIC (S. aureus): 3.64 µg/mL (≈ 7.02 µM)

Compound: CCCCNC(=O)C(C1CCCCC1)N(Cc1cn(C2OC(CO)C(O)C(O)C2NC(C)=O)nn1)C(=O)c1ccccc1I (stereo not shown) [BI.fgba]
- inhibition of FlgJ (GH73) (FlgJ (GH73)): weak inhibition
- inhibition of GlcNAcase LytG (LytG (GH73)): inhibits
- MIC (B. subtilis [4]; Bacillus subtilis, read-out: minimum inhibitory concentration (MIC)): 63 µM (≈ 45.8 µg/mL)
- bacteriostatic activity (B. subtilis [4]; bacterial strain B. subtilis): concentration-dependent bacteriostatic activity

Compound: C#CCN(C(=O)c1ccccc1I)C(C(=O)NC1CCCCC1)C1CCCCC1 (stereo not shown) [fgbc]
- antibacterial activity against S. pneumoniae (S. pneumoniae): antibacterial activity
- MIC (S. pneumoniae): 3.56 µg/mL (≈ 7.03 µM)

Compound: C#CCN(C(=O)c1ccccc1)C(C(=O)NCCCC)C1CCCCC1 (stereo not shown) [rgba]
- Minimum inhibitory concentration (MIC), lowest concentration preventing color change blue to pink (B. subtilis [4]): 250 µM (≈ 88.6 µg/mL)

Compound: COc1ccc(C(C(=O)NCc2ccccc2)N(C(=O)c2ccccc2I)c2ccccc2)cc1 (stereo not shown) [fbqb]
- activity (structure-activity comparison) (B. subtilis [2]; 250 μM, compared to aliphatic derivatives): lower activity

Compound: C#CCN(C(=O)c1ccccc1I)C(C(=O)NCc1ccccc1)C1CCCCC1 (stereo not shown) [fgbb]
- antibacterial activity against S. pneumoniae (S. pneumoniae): antibacterial activity
- MIC (S. pneumoniae): 3.62 µg/mL (≈ 7.04 µM)

Compound: CCCCNC(=O)C(C1CCCCC1)N(C(=O)c1ccccc1I)C(C)(C)C (stereo not shown) [fgna]
- MIC (P. difficile): 17.5 µg/mL (≈ 35.1 µM)
